As usually defined, the IC50 is the concentration needed to halve the response being measured.

Assay [1] has as its system HCT-116. Put plainly: Antiproliferative activity against human HCT-116 cells assessed as inhibition of cell growth. The format is functional, cell-based.
Assay [2] concerns the target Signal transducer and activator of transcription 3 (Homo sapiens, UniProt P40763). Put plainly: Inhibition of STAT3 phosphorylation (unknown origin).
Assay [3] concerns the target Tubulin. Put plainly: Inhibition of tubulin polymerization (unknown origin). The format is protein-complex assay, Homo sapiens.
For another assay, the system named is MDA-MB-231. Put plainly: Antiproliferative activity against human MDA-MB-231 cells assessed as inhibition of cell growth. The format is functional, cell-based.
Another assay has as its system A549. Kind of assay: Antiproliferative activity against human A549 cells assessed as inhibition of cell growth. The format is functional, cell-based.
Assay [4] can be described thus: Antiproliferative activity against human DND41 cells assessed as inhibition of cell growth incubated for 72 hrs by IncuCyte live-cell imaging analysis. The format is functional, cell-based. Particulars: DND41, 72 h.
The next assay relates to Z-138. Put plainly: Antiproliferative activity against human Z138 cells assessed as inhibition of cell growth incubated for 72 hrs by IncuCyte live-cell imaging analysis. The format is functional, cell-based. The conditions noted are these: Z-138, 72 h.
Another assay relates to NCI-H460. Put plainly: Antiproliferative activity against human NCI-H460 cells assessed as inhibition of cell growth incubated for 72 hrs by IncuCyte live-cell imaging analysis. The conditions noted are these: NCI-H460, 72 h. Format: functional, cell-based.
The subject of another assay is K562. Put plainly: Antiproliferative activity against human K562 cells assessed as inhibition of cell growth incubated for 72 hrs by IncuCyte live-cell imaging analysis. The conditions noted are these: K562, 72 h. The format is functional, cell-based.
For another assay, the system named is CAPAN-1. Put plainly: Antiproliferative activity against human CAPAN-1 cells assessed as inhibition of cell growth incubated for 72 hrs by IncuCyte live-cell imaging analysis. The conditions noted are these: CAPAN-1, 72 h. Format: functional, cell-based.
For the next assay, the system named is HL-60. Put plainly: Antiproliferative activity against human HL-60 cells assessed as inhibition of cell growth incubated for 72 hrs by IncuCyte live-cell imaging analysis. The conditions noted are these: HL-60, 72 h. The format is functional, cell-based.
Assay [5] concerns the target Tubulin. Put plainly: Inhibition of tubulin polymerization (unknown origin) by fluorescence-based tubulin polymerization assay. The format is protein-complex assay, Homo sapiens.
Assay [6] deals with HCT-116. Kind of assay: Antiproliferative activity against human HCT-116 cells assessed as inhibition of cell growth incubated for 72 hrs by IncuCyte live-cell imaging analysis. The format is functional, cell-based. The conditions noted are these: HCT-116, 72 h.
A further assay relates to DU-145. Put plainly: Cytotoxicity against human DU-145 cells assessed as inhibition of cell growth incubated for 24 hrs by MTT assay. Format: functional, cell-based. Particulars: DU-145, 24 h. A general note: Formazan colour is commonly taken as a measure of viable cells.

Sequence of Signal transducer and activator of transcription 3 (P40763 whole entry): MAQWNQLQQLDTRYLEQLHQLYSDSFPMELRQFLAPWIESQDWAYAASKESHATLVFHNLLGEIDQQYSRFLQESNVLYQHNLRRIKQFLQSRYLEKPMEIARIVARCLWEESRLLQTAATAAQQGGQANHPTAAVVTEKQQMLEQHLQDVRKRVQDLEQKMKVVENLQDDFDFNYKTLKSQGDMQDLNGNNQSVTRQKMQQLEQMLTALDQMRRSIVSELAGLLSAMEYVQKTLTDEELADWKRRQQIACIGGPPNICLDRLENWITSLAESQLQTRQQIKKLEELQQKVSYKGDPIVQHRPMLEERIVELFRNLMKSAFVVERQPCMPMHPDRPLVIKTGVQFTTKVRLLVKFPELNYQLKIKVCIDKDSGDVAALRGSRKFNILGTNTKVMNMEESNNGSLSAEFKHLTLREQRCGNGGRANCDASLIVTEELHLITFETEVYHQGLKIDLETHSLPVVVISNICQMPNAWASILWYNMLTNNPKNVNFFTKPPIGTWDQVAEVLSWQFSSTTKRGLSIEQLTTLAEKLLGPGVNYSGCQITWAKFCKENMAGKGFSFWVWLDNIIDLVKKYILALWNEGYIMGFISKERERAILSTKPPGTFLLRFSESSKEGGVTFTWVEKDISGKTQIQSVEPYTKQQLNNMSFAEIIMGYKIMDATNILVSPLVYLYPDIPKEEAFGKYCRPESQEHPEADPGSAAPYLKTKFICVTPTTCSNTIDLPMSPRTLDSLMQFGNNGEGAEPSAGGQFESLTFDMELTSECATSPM

Turning to `C=CN(c1cccc2ccccc12)S(=O)(=O)c1ccc(OC)cc1`, the IC50 with HCT-116 [1] was determined as 3040 nM; in assay [2] it was 6840 nM; on Tubulin [3], 830 nM; with MDA-MB-231, 2850 nM; with A549 it was 1350 nM.

Take `COC(=O)Nc1ccc(C(=O)Nc2ccccc2OC)c(O)c1`: the IC50 in [4] was 1300 nM; in the assay with Z-138, 1300 nM; in the assay on NCI-H460, 2800 nM; in the assay on K562 it was 1300 nM; in the assay on CAPAN-1, 1300 nM; with HL-60, 1500 nM. The IC50 against Tubulin [5] was determined as 3900 nM; in the assay with HCT-116 [6], 1400 nM.

Turning to `COc1cccc2c1C(=O)c1c(O)c3c(c(O)c1C2=O)C[C@@](O)(C(=O)CO)C[C@@H]3O[C@H]1C[C@H](N)[C@H](O)[C@H](C)O1` [DOXORUBICIN], in the assay on DU-145, the IC50 was greater than 30000 nM.
